Measurements: patent publication US4130559A, “Method for the preparation of 6-aminopenicillinic acid derivatives” (priority 1977, dated 1978)
≈ marks a conversion by molar mass, not a printed value. Where two headings read alike, the source gives them in different places.

Key:
[1] = Acid resistance (half-life period); assay type: physicochemical; conditions: acid ph 1.3, Temperature 37° C, pH 1.3, read-out: τ1/2 half-life period (acid resistance)
Method: (§1) All compounds of this group were prepared in the form of sodium salts. Bactericidal activity, degree of hydrolysis with staphylococc penicillinase and acid resistance of the penicillins were determined.

[2] = in vivo; conditions: mouse, iv
[3] = system: Sh.dysenteriae Flexneri; experiment: Minimal bacteriostatic concentration; assay type: cell-based; conditions: Shigella dysenteriae, read-out: Minimal Bacteriostatic Concentration
Method: as §1

[4] = system: B.Subtitis ATCC6633; experiment: Minimal bacteriostatic concentration; assay type: cell-based; conditions: sodium salts
Method: as §1

[5] = system: Myco smegmatis; experiment: Minimal bacteriostatic concentration; assay type: cell-based; conditions: sodium salts
Method: as §1

[6] = system: Prot.vulgaris; experiment: Minimal bacteriostatic concentration; assay type: cell-based; conditions: Proteus vulgaris, sodium salts
Method: as §1

[7] = system: Vibrion Metschnicoff; experiment: Minimal bacteriostatic concentration; assay type: cell-based; conditions: Vibrion Metschnicoff; sodium salts; read-out: Minimal Bacteriostatic Concentration
Method: as §1

[8] = system: Staph. aureus 209p; experiment: Minimal bacteriostatic concentration; assay type: cell-based; conditions: Staphylococcus aureus, sodium salts
Method: as §1

[9] = system: Staph. albus; experiment: Minimal bacteriostatic concentration; assay type: cell-based; conditions: sodium salts
Method: as §1

[10] = system: E.coli O-55; experiment: Minimal bacteriostatic concentration; assay type: cell-based; conditions: Escherichia coli, O55, read-out: Minimal Bacteriostatic Concentration
Method: as §1

[11] = system: Strept. pyrogenes; experiment: Minimal bacteriostatic concentration; assay type: cell-based; conditions: sodium salts
Method: as §1

[12] = molecular target: staphylococc penicillinase (Staphylococcus aureus, UniProt P00807); experiment: Hydrolysis/inactivation by staphylococc penicillinase; assay type: biochemical; conditions: Table 5
Method: as §1
The substitution of propoxy radical for iso-radical in this position is not accompanied by areduction of penicillin stability against penicillinase which is not observed in the orto- and para-positions. During the subsequent hours of inactivation the rate of hydrolysis of penicillins slightly increases. However, even when observed in dynamics, their stability against penicillianase still persists during 4-hour-inactivation.

[13] = system: E.typhi; experiment: Minimal bacteriostatic concentration; assay type: cell-based; conditions: read-out: Minimal Bacteriostatic Concentration
Method: as §1

[14] = system: Ps.aeruginosa; experiment: Minimal bacteriostatic concentration; assay type: cell-based; conditions: Pseudomonas aeruginosa, sodium salts
Method: as §1

staphylococc penicillinase, sequence (P00807 25-281): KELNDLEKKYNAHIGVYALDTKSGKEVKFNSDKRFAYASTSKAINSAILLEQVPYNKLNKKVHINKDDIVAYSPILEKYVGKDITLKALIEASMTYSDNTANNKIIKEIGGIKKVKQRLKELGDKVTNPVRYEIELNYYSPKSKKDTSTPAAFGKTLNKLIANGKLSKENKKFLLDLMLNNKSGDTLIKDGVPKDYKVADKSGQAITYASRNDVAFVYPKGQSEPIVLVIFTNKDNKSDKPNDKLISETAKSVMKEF

| Compound | half-life ([1]; Table 2, cyclopropyl series) [min] | MTD [2] [mg/kg] | half-life ([1]; Table 3, cyclobutyl series) [min] | further results |
| --- | --- | --- | --- | --- |
| COc1ccc(C2(C(=O)N[C@@H]3C(=O)N4[C@@H]3SC(C)(C)[C@@H]4C(=O)O)CC2)cc1 [Compound XII (Table 2)] | 7.3 | 2000 | – | – |
| CC1(C)S[C@@H]2[C@H](NC(=O)C3(c4ccccc4)CCC3)C(=O)N2[C@H]1C(=O)O [Compound I (Table 3)] | – | 1000 | 86.6 | – |
| CCCCOc1ccccc1C1(C(=O)NC2C(=O)N3C2SC(C)(C)C3C(=O)O)CC1 (stereo not shown) [Compound VI (Table 2)] | 5.2 | 500 | – | – |
| CC(C)Oc1cccc(C2(C(=O)N[C@@H]3C(=O)N4[C@@H]3SC(C)(C)[C@@H]4C(=O)O)CCC2)c1 [Compound X (Table 3)] | – | 500 | 17.2 | – |
| CCOc1ccc(C2(C(=O)N[C@@H]3C(=O)N4[C@@H]3SC(C)(C)[C@@H]4C(=O)O)CC2)cc1 [Compound XIII (Table 2)] | 6.7 | 2750 | – | – |
| CCCOc1cccc(C2(C(=O)N[C@@H]3C(=O)N4[C@@H]3SC(C)(C)[C@@H]4C(=O)O)CC2)c1 [Compound IX (Table 2)] | 14.5 | 1500 | – | – |
| CCCCOc1cccc(C2(C(=O)N[C@@H]3C(=O)N4[C@@H]3SC(C)(C)[C@@H]4C(=O)O)CCC2)c1 [Compound XI (Table 3)] | – | 1000 | 46.6 | – |
| CC(C)Oc1ccccc1C1(C(=O)N[C@@H]2C(=O)N3[C@@H]2SC(C)(C)[C@@H]3C(=O)O)CCC1 [Compound V (Table 3)] | – | 250 | 18.6 | – |
| COc1cccc(C2(C(=O)N[C@@H]3C(=O)N4[C@@H]3SC(C)(C)[C@@H]4C(=O)O)CCC2)c1 [Compound VII (Table 3)] | – | 1500 | 56.9 | – |
| COc1cccc(C2(C(=O)NC3C(=O)N4C3SC(C)(C)C4C(=O)O)CC2)c1 (stereo not shown) [Compound VII (Table 2)] | 7.2 | 1500 | – | – |
| CCOc1ccccc1C1(C(=O)N[C@@H]2C(=O)N3[C@@H]2SC(C)(C)[C@@H]3C(=O)O)CCC1 [Compound III (Table 3)] | – | 250 | 19.1 | – |
| CCCCOc1cccc(C2(C(=O)N[C@@H]3C(=O)N4[C@@H]3SC(C)(C)[C@@H]4C(=O)O)CC2)c1 [Compound XI (Table 2)] | 6.2 | 250 | – | – |
| CCOc1ccc(C2(C(=O)N[C@@H]3C(=O)N4[C@@H]3SC(C)(C)[C@@H]4C(=O)O)CCC2)cc1 [Compound XIII (Table 3)] | – | 1000 | 190 | – |
| CC1(C)SC2C(NC(=O)C3(c4ccccc4)CC3)C(=O)N2C1C(=O)O (stereo not shown) [Compound I (Table 2)] | 9.9 | 1500 | – | – |
| CCOc1ccccc1C1(C(=O)NC2C(=O)N3C2SC(C)(C)C3C(=O)O)CC1 (stereo not shown) [Compound III (Table 2)] | 6 | 500 | – | – |
| CC(C)Oc1cccc(C2(C(=O)N[C@@H]3C(=O)N4[C@@H]3SC(C)(C)[C@@H]4C(=O)O)CC2)c1 [Compound X (Table 2)] | 10.5 | 500 | – | – |
| CCCCOc1cccc(C2(C(=O)NC3C(=O)N4C3SC(C)(C)C4C(=O)O)CCCC2)c1 (stereo not shown) [Compound XI (Table 1)] | – | 2000 | – | MIC [3]: 125 µg/mL (≈ 271 µM); MIC [4]: 1.56 µg/mL; MIC [5]: > 500 µg/mL; MIC [6]: 125 µg/mL; MIC [7]: 15.6 µg/mL; MIC [8]: 0.39 µg/mL; MIC [9]: 0.19 µg/mL; MIC [10]: 125 µg/mL (≈ 271 µM); MIC [11]: 0.39 µg/mL; half-life ([1]; Table 1, cyclopentyl series): 278 min; Quantity of inactivated units of compounds under the action of 1 unit of staphylococc penicillinase [12]: 11.2 units |
| CCCCOc1ccccc1C1(C(=O)N[C@@H]2C(=O)N3[C@@H]2SC(C)(C)[C@@H]3C(=O)O)CCC1 [Compound VI (Table 3)] | – | 1000 | 24.9 | – |

| Compound | half-life ([1]; Table 2, cyclopropyl series) [min] | MTD [2] [mg/kg] | half-life ([1]; Table 3, cyclobutyl series) [min] | further results |
| --- | --- | --- | --- | --- |
| CC(C)Oc1ccc(C2(C(=O)N[C@@H]3C(=O)N4[C@@H]3SC(C)(C)[C@@H]4C(=O)O)CCC2)cc1 [Compound XV (Table 3)] | – | 500 | 60.1 | – |
| CCOc1cccc(C2(C(=O)N[C@@H]3C(=O)N4[C@@H]3SC(C)(C)[C@@H]4C(=O)O)CCC2)c1 [Compound VIII (Table 3)] | – | 1500 | 23.8 | – |
| CCCOc1cccc(C2(C(=O)N[C@@H]3C(=O)N4[C@@H]3SC(C)(C)[C@@H]4C(=O)O)CCC2)c1 [Compound IX (Table 3)] | – | 250 | 20.1 | – |
| CCCOc1ccccc1C1(C(=O)NC2C(=O)N3C2SC(C)(C)C3C(=O)O)CC1 (stereo not shown) [Compound IV (Table 2)] | 5.8 | 500 | – | – |
| COc1ccc(C2(C(=O)N[C@@H]3C(=O)N4[C@@H]3SC(C)(C)[C@@H]4C(=O)O)CCC2)cc1 [Compound XII (Table 3)] | – | 1500 | 10.7 | – |
| CCCCOc1ccc(C2(C(=O)N[C@@H]3C(=O)N4[C@@H]3SC(C)(C)[C@@H]4C(=O)O)CCC2)cc1 [Compound XVI (Table 3)] | – | 500 | 25.6 | – |
| COc1ccccc1C1(C(=O)N[C@@H]2C(=O)N3[C@@H]2SC(C)(C)[C@@H]3C(=O)O)CCC1 [Compound II (Table 3)] | – | 500 | 7.7 | – |
| CCCCOc1ccc(C2(C(=O)NC3C(=O)N4C3SC(C)(C)C4C(=O)O)CCCC2)cc1 (stereo not shown) [Compound XVI (Table 1)] | – | 1500 | – | MIC [3]: 62.5 µg/mL (≈ 136 µM); MIC [4]: 0.24 µg/mL; MIC [5]: > 500 µg/mL; MIC [13]: 15.6 µg/mL (≈ 33.9 µM); MIC [6]: 125 µg/mL; MIC [14]: > 500 µg/mL; MIC [7]: 0.48 µg/mL; MIC [8]: 0.39 µg/mL; MIC [9]: 0.19 µg/mL; MIC [10]: 125 µg/mL (≈ 271 µM); MIC [11]: 0.048 µg/mL; half-life ([1]; Table 1, cyclopentyl series): 43.2 min; Quantity of inactivated units of compounds under the action of 1 unit of staphylococc penicillinase [12]: 23.3 units |
| CCOc1cccc(C2(C(=O)NC3C(=O)N4C3SC(C)(C)C4C(=O)O)CC2)c1 (stereo not shown) [Compound VIII (Table 2)] | 7.3 | 1500 | – | – |
| CC(C)Oc1ccc(C2(C(=O)NC3C(=O)N4C3SC(C)(C)C4C(=O)O)CCCC2)cc1 (stereo not shown) [Compound XV (Table 1)] | – | 1500 | – | MIC [3]: 31.2 µg/mL (≈ 69.9 µM); MIC [4]: 0.24 µg/mL; MIC [5]: > 500 µg/mL; MIC [13]: 7.8 µg/mL (≈ 17.5 µM); MIC [6]: 62.5 µg/mL; MIC [14]: > 500 µg/mL; MIC [7]: 0.48 µg/mL; MIC [8]: 0.19 µg/mL; MIC [9]: 0.19 µg/mL; MIC [10]: 25 µg/mL (≈ 56 µM); MIC [11]: 0.09 µg/mL; half-life ([1]; Table 1, cyclopentyl series): 160 min; Quantity of inactivated units of compounds under the action of 1 unit of staphylococc penicillinase [12]: 9.4 units |
| CCCOc1ccc(C2(C(=O)N[C@@H]3C(=O)N4[C@@H]3SC(C)(C)[C@@H]4C(=O)O)CC2)cc1 [Compound XIV (Table 2)] | 19.4 | 1000 | – | – |
| CCCOc1ccc(C2(C(=O)NC3C(=O)N4C3SC(C)(C)C4C(=O)O)CCCC2)cc1 (stereo not shown) [Compound XIV (Table 1)] | – | 1500 | – | MIC [3]: 31.2 µg/mL (≈ 69.9 µM); MIC [4]: 0.24 µg/mL; MIC [5]: > 500 µg/mL; MIC [13]: 7.8 µg/mL (≈ 17.5 µM); MIC [6]: 62.5 µg/mL; MIC [14]: > 500 µg/mL; MIC [7]: 0.9 µg/mL; MIC [8]: 0.39 µg/mL; MIC [9]: 0.09 µg/mL; MIC [10]: 125 µg/mL (≈ 280 µM); MIC [11]: 0.048 µg/mL; half-life ([1]; Table 1, cyclopentyl series): 88.9 min; Quantity of inactivated units of compounds under the action of 1 unit of staphylococc penicillinase [12]: 10.4 units |
| CC(C)Oc1ccccc1C1(C(=O)NC2C(=O)N3C2SC(C)(C)C3C(=O)O)CC1 (stereo not shown) [Compound V (Table 2)] | 6 | 500 | – | – |
| COc1ccc(C2(C(=O)NC3C(=O)N4C3SC(C)(C)C4C(=O)O)CCCC2)cc1 (stereo not shown) [Compound XII (Table 1)] | – | 2000 | – | MIC [3]: 31.2 µg/mL (≈ 74.5 µM); MIC [4]: 0.24 µg/mL; MIC [5]: > 500 µg/mL; MIC [13]: 7.8 µg/mL (≈ 18.6 µM); MIC [6]: 62.5 µg/mL; MIC [14]: > 500 µg/mL; MIC [7]: 0.48 µg/mL; MIC [8]: 0.19 µg/mL; MIC [9]: 0.19 µg/mL; MIC [10]: 125 µg/mL (≈ 299 µM); MIC [11]: 0.048 µg/mL; half-life ([1]; Table 1, cyclopentyl series): 163 min; Quantity of inactivated units of compounds under the action of 1 unit of staphylococc penicillinase [12]: 40.3 units |
| CCCCOc1ccc(C2(C(=O)N[C@@H]3C(=O)N4[C@@H]3SC(C)(C)[C@@H]4C(=O)O)CC2)cc1 [Compound XVI (Table 2)] | 6.1 | 250 | – | – |
| COc1ccccc1C1(C(=O)NC2C(=O)N3C2SC(C)(C)C3C(=O)O)CC1 (stereo not shown) [Compound II (Table 2)] | 5 | 2000 | – | – |
| CCCOc1ccc(C2(C(=O)N[C@@H]3C(=O)N4[C@@H]3SC(C)(C)[C@@H]4C(=O)O)CCC2)cc1 [Compound XIV (Table 3)] | – | 250 | 27.3 | – |
| CCCOc1ccccc1C1(C(=O)N[C@@H]2C(=O)N3[C@@H]2SC(C)(C)[C@@H]3C(=O)O)CCC1 [Compound IV (Table 3)] | – | 500 | 23 | – |
